Laboratory results from PubChem BioAssay AID2060882 (Molecular Pharmacology Branch, DTP, NCI, 2025).

Tested on: 898857-211-R-J1-PDC complex spheroids, growth % test/control
Test: Anticancer human tumor 898857-211-R-J1-PDC patient-derived melanoma cell line growth inhibition [RAS]
Conditions: for IC50: curve of first compound; for viability, T/C: stronger effect = lower value
Procedure, shortened: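 Multi-cell-type spheroids: tumor cells plus HUVEC endothelial cells and mesenchymal stem cells. RAS-pathway inhibitors were combined with targeted agents, each dosed in half-log steps down from clinical Cmax, or from 10 microM when Cmax was unknown.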
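Further: spheroids exposed to compound for seven days before readout.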
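Wherever viability, T/C is given: 100% = DMSO vehicle control wells.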

SMILES: Nc1ccn(C2OC(CO)C(O)C2(F)F)c(=O)n1 (configuration not stated) + CCn1c(-c2cccnc2C(C)OC)c2c3cc(ccc31)N1CCOC(CC(NC(=O)C(C(C)C)N(C)C(=O)C3(F)CCN(C(=O)C#CC(C)(C)N(C)C)CC3)C(=O)N3CCCC(N3)C(=O)OCC(C)(C)C2)C1
- IC50 (second compound 0.000949 µM): 6.76 nM
- IC50 (second compound 0.003 µM): 7.19 nM
- IC50 (second compound 0.00949 µM): 6.7 nM
- IC50 (second compound 0.03 µM): 6.02 nM
- IC50 (second compound 0.0949 µM): 5.71 nM
- IC50 (second compound 0.3 µM): 3.59 nM
- viability, T/C (second compound 0.000949 µM, first compound 0.00316 µM): 92.8%
- viability, T/C (second compound 0.000949 µM, first compound 0.01 µM): 27.9%
- viability, T/C (second compound 0.000949 µM, first compound 0.0316 µM): 5.77%
- viability, T/C (second compound 0.000949 µM, first compound 0.1 µM): 4.12%
- viability, T/C (second compound 0.000949 µM, first compound 0.316 µM): 5.73%
- viability, T/C (second compound 0.000949 µM, first compound 1 µM): 5.16%
- viability, T/C (second compound 0.003 µM, first compound 0.00316 µM): 100%
- viability, T/C (second compound 0.003 µM, first compound 0.01 µM): 29.9%
- viability, T/C (second compound 0.003 µM, first compound 0.0316 µM): 6.22%
- viability, T/C (second compound 0.003 µM, first compound 0.1 µM): 5.43%
- viability, T/C (second compound 0.003 µM, first compound 0.316 µM): 4.28%
- viability, T/C (second compound 0.003 µM, first compound 1 µM): 4.09%
- viability, T/C (second compound 0.00949 µM, first compound 0.00316 µM): 95.7%
- viability, T/C (second compound 0.00949 µM, first compound 0.01 µM): 25.6%
- viability, T/C (second compound 0.00949 µM, first compound 0.0316 µM): 5.43%
- viability, T/C (second compound 0.00949 µM, first compound 0.1 µM): 3.4%
- viability, T/C (second compound 0.00949 µM, first compound 0.316 µM): 4.91%
- viability, T/C (second compound 0.00949 µM, first compound 1 µM): 4.53%
- viability, T/C (second compound 0.03 µM, first compound 0.00316 µM): 86.8%
- viability, T/C (second compound 0.03 µM, first compound 0.01 µM): 21%
- viability, T/C (second compound 0.03 µM, first compound 0.0316 µM): 4.86%
- viability, T/C (second compound 0.03 µM, first compound 0.1 µM): 4.53%
- viability, T/C (second compound 0.03 µM, first compound 0.316 µM): 4.23%
- viability, T/C (second compound 0.03 µM, first compound 1 µM): 3.48%
- viability, T/C (second compound 0.0949 µM, first compound 0.00316 µM): 86%
- viability, T/C (second compound 0.0949 µM, first compound 0.01 µM): 15.7%
- viability, T/C (second compound 0.0949 µM, first compound 0.0316 µM): 4.15%
- viability, T/C (second compound 0.0949 µM, first compound 0.1 µM): 3.36%
- viability, T/C (second compound 0.0949 µM, first compound 0.316 µM): 3.77%
- viability, T/C (second compound 0.0949 µM, first compound 1 µM): 4.54%
- viability, T/C (second compound 0.3 µM, first compound 0.00316 µM): 54.6%
- viability, T/C (second compound 0.3 µM, first compound 0.01 µM): 12.4%
- viability, T/C (second compound 0.3 µM, first compound 0.0316 µM): 3.88%
- viability, T/C (second compound 0.3 µM, first compound 0.1 µM): 3.1%
- viability, T/C (second compound 0.3 µM, first compound 0.316 µM): 3.62%
- viability, T/C (second compound 0.3 µM, first compound 1 µM): 2.98%
